Literature values as cited in PubChem BioAssay AID1259409 (Chemical Carcinogenesis Research Information System (CCRIS), 2018).

System: rodent chemically induced tumor inhibition, incidence and multiplicity
Assay: CCRIS tumor inhibitor studies
Conditions: for outcome: Carcinogen: N-BUTYL-N-(4-HYDROXYBUTYL)NITROSAMINE [3817-11-6], Route [Inhibitor]: INTRAGASTRIC, Species: MOUSE, Strain/Sex: C57BL/6/FEMALE, Promoter: NONE; for tumour outcome (control, treated, inhibition, significance): Dose [Inhibitor]: 0, Route [Inhibitor]: SUBCUTANEOUS, Species: RAT, Strain/Sex: WISTAR/MALE, Promoter: NONE USED

CN1CCN(c2c(F)cc3c(=O)c(C(=O)O)cn(CCF)c3c2F)CC1
outcome (Dose [Inhibitor]: 10 MG ONCE/D FOR 1 WK BEGINNING 1 WK PRIOR TO FIRST CARCINOGEN DOSE (STUDY DURATION: 13 WK), Target Tissue: Type of Lesion: URINARY BLADDER: CARCINOMA IN SITU, Dose [Carcinogen]: 0.05% IN DRINKING WATER FOR 8 WK BEGINNING IMMEDIATELY POST LAST INHIBITOR DOSE (STUDY DURATION: 13 WK)): 1, 0, not significant | outcome (Dose [Inhibitor]: 10 MG ONCE/D FOR 1 WK BEGINNING 1 WK PRIOR TO FIRST CARCINOGEN DOSE (STUDY DURATION: 13 WK), Target Tissue: Type of Lesion: URINARY BLADDER: INVASIVE CARCINOMA, Dose [Carcinogen]: 0.05% IN DRINKING WATER FOR 8 WK BEGINNING IMMEDIATELY POST LAST INHIBITOR DOSE (STUDY DURATION: 13 WK)): 0, 0, not significant | outcome (Dose [Inhibitor]: 10 MG ONCE/D FOR 1 WK BEGINNING 1 WK PRIOR TO FIRST CARCINOGEN DOSE (STUDY DURATION: 17 WK), Target Tissue: Type of Lesion: URINARY BLADDER: CARCINOMA IN SITU, Dose [Carcinogen]: 0.05% IN DRINKING WATER FOR 8 WK BEGINNING IMMEDIATELY POST LAST INHIBITOR DOSE (STUDY DURATION: 17 WK)): 1, 0, not significant | outcome (Dose [Inhibitor]: 10 MG ONCE/D FOR 1 WK BEGINNING 1 WK PRIOR TO FIRST CARCINOGEN DOSE (STUDY DURATION: 17 WK), Target Tissue: Type of Lesion: URINARY BLADDER: INVASIVE CARCINOMA, Dose [Carcinogen]: 0.05% IN DRINKING WATER FOR 8 WK BEGINNING IMMEDIATELY POST LAST INHIBITOR DOSE (STUDY DURATION: 17 WK)): 1, 0, not significant | outcome (Dose [Inhibitor]: 10 MG ONCE/D FOR 1 WK BEGINNING 1 WK PRIOR TO FIRST CARCINOGEN DOSE (STUDY DURATION: 21 WK), Target Tissue: Type of Lesion: URINARY BLADDER: CARCINOMA IN SITU, Dose [Carcinogen]: 0.05% IN DRINKING WATER FOR 12 WK BEGINNING IMMEDIATELY POST LAST INHIBITOR DOSE (STUDY DURATION: 21 WK)): 0, 1, not significant | outcome (Dose [Inhibitor]: 10 MG ONCE/D FOR 1 WK BEGINNING 1 WK PRIOR TO FIRST CARCINOGEN DOSE (STUDY DURATION: 21 WK), Target Tissue: Type of Lesion: URINARY BLADDER: INVASIVE CARCINOMA, Dose [Carcinogen]: 0.05% IN DRINKING WATER FOR 12 WK BEGINNING IMMEDIATELY POST LAST INHIBITOR DOSE (STUDY DURATION: 21 WK)): 9, 6, not significant | outcome (Dose [Inhibitor]: 50 MG ONCE/D FOR 1 WK BEGINNING 1 WK PRIOR TO FIRST CARCINOGEN DOSE (STUDY DURATION: 13 WK), Target Tissue: Type of Lesion: URINARY BLADDER: CARCINOMA IN SITU, Dose [Carcinogen]: 0.05% IN DRINKING WATER FOR 8 WK BEGINNING IMMEDIATELY POST LAST INHIBITOR DOSE (STUDY DURATION: 13 WK)): 1, 0, not significant | outcome (Dose [Inhibitor]: 50 MG ONCE/D FOR 1 WK BEGINNING 1 WK PRIOR TO FIRST CARCINOGEN DOSE (STUDY DURATION: 13 WK), Target Tissue: Type of Lesion: URINARY BLADDER: INVASIVE CARCINOMA, Dose [Carcinogen]: 0.05% IN DRINKING WATER FOR 8 WK BEGINNING IMMEDIATELY POST LAST INHIBITOR DOSE (STUDY DURATION: 13 WK)): 0, 0, not significant | outcome (Dose [Inhibitor]: 50 MG ONCE/D FOR 1 WK BEGINNING 1 WK PRIOR TO FIRST CARCINOGEN DOSE (STUDY DURATION: 17 WK), Target Tissue: Type of Lesion: URINARY BLADDER: CARCINOMA IN SITU, Dose [Carcinogen]: 0.05% IN DRINKING WATER FOR 8 WK BEGINNING IMMEDIATELY POST LAST INHIBITOR DOSE (STUDY DURATION: 17 WK)): 1, 0, not significant | outcome (Dose [Inhibitor]: 50 MG ONCE/D FOR 1 WK BEGINNING 1 WK PRIOR TO FIRST CARCINOGEN DOSE (STUDY DURATION: 17 WK), Target Tissue: Type of Lesion: URINARY BLADDER: INVASIVE CARCINOMA, Dose [Carcinogen]: 0.05% IN DRINKING WATER FOR 8 WK BEGINNING IMMEDIATELY POST LAST INHIBITOR DOSE (STUDY DURATION: 17 WK)): 1, 0, not significant | outcome (Dose [Inhibitor]: 50 MG ONCE/D FOR 1 WK BEGINNING 1 WK PRIOR TO FIRST CARCINOGEN DOSE (STUDY DURATION: 21 WK), Target Tissue: Type of Lesion: URINARY BLADDER: CARCINOMA IN SITU, Dose [Carcinogen]: 0.05% IN DRINKING WATER FOR 12 WK BEGINNING IMMEDIATELY POST LAST INHIBITOR DOSE (STUDY DURATION: 21 WK)): 0, 2, not significant | outcome (Dose [Inhibitor]: 50 MG ONCE/D FOR 1 WK BEGINNING 1 WK PRIOR TO FIRST CARCINOGEN DOSE (STUDY DURATION: 21 WK), Target Tissue: Type of Lesion: URINARY BLADDER: INVASIVE CARCINOMA, Dose [Carcinogen]: 0.05% IN DRINKING WATER FOR 12 WK BEGINNING IMMEDIATELY POST LAST INHIBITOR DOSE (STUDY DURATION: 21 WK)): 9, 5, not significant

NC(N)=NC(=O)c1nc(Cl)c(N)nc1N
tumour outcome (control, treated, inhibition, significance) (Carcinogen: AZOXYMETHANE, 25843-45-2, 5 MG/KG BW 1/2 D FOR 35 WK (STUDY DURATION: 35 WK), Target Tissue: Type of Lesion: COLON: TUMOR, Dose [Carcinogen]: 7.4 MG/KG BW 1/WK FOR 10 WK): 15/19 (79%), 13/17 (76%), 4%, not significant | tumour outcome (control, treated, inhibition, significance) (Carcinogen: AZOXYMETHANE, 25843-45-2, 7.5 MG/KG BW 1/2 D FOR 35 WK (STUDY DURATION: 35 WK), Target Tissue: Type of Lesion: COLON: TUMOR, Dose [Carcinogen]: 7.4 MG/KG BW 1/WK FOR 10 WK): 15/19 (79%), 7/18 (39%), 51%, p<0.001 | tumour outcome (control, treated, inhibition, significance) (Carcinogen: N-METHYL-N'-NITRO-N-NITROSOGUANIDINE, 70-25-7, 2.5 MG/KG BW 1/2 D BEGINNING 25 WK POST FIRST CARCINOGEN DOSE AND CONTINUING FOR DURATION OF STUDY (STUDY DURATION: 5, Target Tissue: Type of Lesion: STOMACH: ADENOCARCINOMA, Dose [Carcinogen]: 50 UG/ML IN DRINKING WATER FOR 25 WK): 10/20 (50%), 5/17 (29%), 42%, not significant | tumour outcome (control, treated, inhibition, significance) (Carcinogen: N-METHYL-N'-NITRO-N-NITROSOGUANIDINE, 70-25-7, 5 MG/KG BW 1/2 D BEGINNING 25 WK POST FIRST CARCINOGEN DOSE AND CONTINUING FOR DURATION OF STUDY (STUDY DURATION: 52, Target Tissue: Type of Lesion: STOMACH: ADENOCARCINOMA, Dose [Carcinogen]: 50 UG/ML IN DRINKING WATER FOR 25 WK): 10/20 (50%), 3/20 (15%), 70%, p<0.05
